Measurements from article PMC5321434, “Dihydrobenz[e][1,4]oxazepin-2(3H)-ones, a new anthelmintic chemotype immobilising whipworm and reducing infectivity in vivo” (PLoS Neglected Tropical Diseases, 2017).
Like-named read-outs stand apart in the source and are kept apart here.

Legend:
T. trichiura = conditions: cited from earlier work; for Cure rate for infection with T. trichiura: single doses of benzimidazoles
adult T. muris = assay: Ex vivo adult T. muris automated motility assay (primary/secondary screen at 100 μM and dose-response); set-up: species or system Trichuris muris; conditions: for COMBINED_SCREEN_ACTIVITY: combined primary and secondary screen minus log fold change in movement, adult T. muris; for COMBINED_SCREEN_ACTIVITY / PRIMARY_SCREEN_MINUS_LOG_FOLD_CHANGE_MOVEMENT / SECONDARY_SCREEN_MINUS_LOG_FOLD_CHANGE_MOVEMENT: 100 μM; for PRIMARY_SCREEN_MINUS_LOG_FOLD_CHANGE_MOVEMENT: primary screen; for PRIMARY_SCREEN_MINUS_LOG_FOLD_CHANGE_MOVEMENT / SECONDARY_SCREEN_MINUS_LOG_FOLD_CHANGE_MOVEMENT: adult T. muris motility; for SECONDARY_SCREEN_MINUS_LOG_FOLD_CHANGE_MOVEMENT: secondary screen
Outline: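 Motility scored after 24 h (37 °C, 5% CO2) by automated imaging of pixel intensity variance, one worm per well, four weekly biological replicates. Worms came from SCID mice infected orally with 200 eggs, harvested day 35; screening at 100 μM final in RPMI-1640/antibiotics, 1% DMSO; curves fitted with four-parameter log-logistic model.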

[1] = test system: embryonated T. muris eggs; assay: In vivo establishment of infection by compound-treated embryonated eggs; set-up: species or system Trichuris muris; conditions: for ResynActivityTmurisEggInfectivity: resynthesised compound, activity on T. muris egg infectivity (Yes/No)
Experimental: 100 infective embryonated eggs were incubated with water, water plus DMSO vehicle, or test compounds at a final concentration of 100μM for 14 days at room temperature. Eggs were then washed, re-suspended in water and 30 eggs given to a mouse via oral gavage. At day 15 post-infection, mice were culled and the number of worms present in the caecae and colon was counted. One data point was excluded: a water control individual mouse where there were technical difficulties with the oral gavage leading to the mouse regurgitating some of the T. muris eggs. It was ear marked at day of gavage and removed from the analysis.
We collected data using the same experimental design on different occasions, these are referred to as batches. Data were obtained from three batches (DMSO and water controls, batches [A,B,C]) or two batches (OX02983 [A,C], OX03153 [B,C]) with the total number of mice used, n, as follows: DMSO: 14, water: 16, OX02983: 10, OX03153: 12. The data were analysed by 2-way ANOVA (worms ~ treatment + batch + treatment * batch). There was no significant interaction effect (P = 0.14) or effect of batch (P = 0.47). We therefore combined the data from the three batches. […] We then conducted a post-hoc test using Tukey’s honest significant difference test.

WST-8 cytotoxicity assay = format: cell-based, mouse; conditions: mouse, CMT-93 rectal epithelial cells; resynthesised compound, WST-8 cytotoxicity; read-out: ResynCytotoxityWST-8(EC50uM)
Experimental: (§1) CMT-93 murine rectal epithelial cells were maintained in Dulbecco's Modified Eagle's Medium (DMEM) with 10% fetal calf serum (FCS) and 1% penicillin-streptomycin solution (10,000U/ml). Cells were plated in 96-well tissue culture plates at a density of 2x10^2 cells per well in a volume of 100μl, and cultured for 96 hours (37°C, 5% CO2) until reaching 30% confluence. The growth medium was removed and replaced with treatment media (DMEM, 1% FCS, 1% penicillin-streptomycin solution, 100μl assay volume) supplemented with vehicle alone (DMSO), test compounds or chlorpromazine, a positive control for cytotoxicity (final concentrations from 0 to 100μM). Maximum vehicle concentration for all compounds was 0.5% DMSO. Cells were cultured with the test compounds for 72 hours before cytotoxicity measurement. The WST-8 assay was performed using the Cell Counting Kit– 8 (Sigma Aldrich # 96992). 10μl of the CCK-8 solution was added to each well, plates were incubated for a further 2 hours, before absorbance was measured at 450nm using a microplate reader. This assay measures the ability of metabolically active cells to reduce a water-soluble formazan dye. Results were analysed using GraphPad Prism and fitted using a log-logistic model.

[2] = Neutral red cytotoxicity assay; format: cell-based, mouse; conditions: mouse, CMT-93 rectal epithelial cells; resynthesised compound, neutral red cytotoxicity; read-out: ResynCytotoxicityNeutralRed(EC50uM)
Experimental: (§2) CMT-93 murine rectal epithelial cells were maintained in Dulbecco's Modified Eagle's Medium (DMEM) with 10% fetal calf serum (FCS) and 1% penicillin-streptomycin solution (10,000U/ml). Cells were plated in 96-well tissue culture plates at a density of 2x10^2 cells per well in a volume of 100μl, and cultured for 96 hours (37°C, 5% CO2) until reaching 30% confluence. The growth medium was removed and replaced with treatment media (DMEM, 1% FCS, 1% penicillin-streptomycin solution, 100μl assay volume) supplemented with vehicle alone (DMSO), test compounds or chlorpromazine, a positive control for cytotoxicity (final concentrations from 0 to 100μM). Maximum vehicle concentration for all compounds was 0.5% DMSO. Cells were cultured with the test compounds for 72 hours before cytotoxicity measurement. Following the WST-8 assay, the medium was removed, cells were washed with 100μl PBS and then 100μl of neutral red medium (DMEM, 1% FBS and 33μg/ml neutral red dye (Sigma Aldrich #N2889) were added to each well, followed by incubation for a further 2 hours. The neutral red medium was removed, cells washed with 100μl of PBS and 100μl of destain solution (50% ethanol, 49% distilled water and 1% glacial acetic acid) were added. Each assay plate was shaken rapidly for 10 minutes before absorbance was measured at 540nm using a microplate reader. This assay measures the ability of living cells to actively take up the neutral red dye. Results were analysed using GraphPad Prism and fitted using a log-logistic model.

[3] = test system: un-embryonated T. muris eggs; assay: Embryonation assay; set-up: species or system Trichuris muris; conditions: resynthesised compound, activity on T. muris embryonation (Yes/No)
Experimental: To assess whether the dihydrobenzoxazepinone compounds could also prevent embryonation, 100 un-embryonated eggs were treated with OX02983 and OX03153 at 100μM for 56 days in the dark at room temperature, then examined under an Olympus SD-ILK microscope for signs of embryonation.

T. muris L1 larvae = test system: T. muris L1 larvae; set-up: method as in PMID 23433224; conditions: cited from earlier work
T. muris L4 larvae = test system: T. muris L4 larvae; set-up: method as in PMID 21889548; conditions: maximum concentration tested 200μg/ml or 229μM; cited from earlier work
T. muris = conditions: associated with cuticular damage; cited from earlier work
[4] = test system: CMT-93 murine rectal epithelial cells; assay: WST-8 cytotoxicity assay; format: cell-based, mouse; conditions: CMT-93 cells, 72 hours, maximum tested concentration 100μM, n = 8, 95% confidence interval in parentheses
Experimental: as §1

[5] = test system: CMT-93 murine rectal epithelial cells; assay: Neutral red cytotoxicity assay; format: cell-based, mouse; conditions: CMT-93 cells, 72 hours, maximum tested concentration 100μM, n = 8, 95% confidence interval in parentheses
Experimental: as §2

Ascaris = test system: Ascaris; set-up: method as in PMID 18430913; conditions: annual treatment; cited from earlier work
L3/L4 and adult T. muris = test system: L3/L4 and adult T. muris; set-up: method as in PMID 25261877; conditions: 200μg/ml (678μM); cited from earlier work
[6] = Trichuris muris, resynthesised compound, adult T. muris paralysis, read-out: ResynActivityTmurisAdultParalysis(EC50uM)

CN1CCCN=C1/C=C/c1cccc(O)c1.O=C(O)c1cc2ccccc2c(Cc2c(O)c(C(=O)O)cc3ccccc23)c1O [oxantel pamoate]
Single-dose cure rate, T. trichiura (T. trichiura; children, optimal dose, dose-ranging study): 60%

Cc1ccc(CN2C(=O)COCc3cc(-c4cccnc4)ccc32)cc1 [Compound 5]
EC50 (adult T. muris; [6]): 57 µM | COMBINED_SCREEN_ACTIVITY (adult T. muris): 10.5493 | PRIMARY_SCREEN_MINUS_LOG_FOLD_CHANGE_MOVEMENT (adult T. muris): 10.5493 | ResynActivityTmurisEggInfectivity [1]: No | EC50 at 72 h (WST-8 cytotoxicity assay): > 100 µM | EC50 at 72 h [2]: > 100 µM | ResynActivityTmurisEmbryonation [3]: No

Ivermectin
Activity against T. muris L1 larvae (T. muris L1 larvae; maximum concentration tested 50μg/ml or 57μM): not active | Activity against T. muris L4 larvae (T. muris L4 larvae): not active

COc1c2ccoc2cc2oc(=O)ccc12 [bergapten]
Activity against T. muris (T. muris): activity against T. muris

1-(4-Methylbenzyl)-7-(pyridin-4-yl)-1,5-dihydrobenzo[e][1,4]oxazepin-2(3H)-one [OX03153]
EC50 (adult T. muris; values of Fig 5 shown for comparison, read-out: EC50 in adult Trichuris paralysis assay): 57 µM | Reduction of infectivity in vivo of treated embryonated eggs ([1]; eggs soaked 14 days at 100μM, washed, 30 eggs by oral gavage to mice, worms counted day 15, versus DMSO control): not active | EC50 [4]: > 100 µM | EC50 [5]: > 100 µM

Cc1ccc(CN2C(=O)COCc3cc(-c4ccncc4)ccc32)cc1 [Compound 1]
EC50 (adult T. muris; [6]): 50 µM | COMBINED_SCREEN_ACTIVITY (adult T. muris): 8.615 | PRIMARY_SCREEN_MINUS_LOG_FOLD_CHANGE_MOVEMENT (adult T. muris): 10.6993 | SECONDARY_SCREEN_MINUS_LOG_FOLD_CHANGE_MOVEMENT (adult T. muris): 6.531 | ResynActivityTmurisEggInfectivity [1]: Yes | EC50 at 72 h (WST-8 cytotoxicity assay): > 100 µM | EC50 at 72 h [2]: > 100 µM | ResynActivityTmurisEmbryonation [3]: No

O=C1COCc2cc(-c3cccnc3)ccc2N1Cc1ccc(C(F)(F)F)cc1 [OX03144, 7-(Pyridin-3-yl)-1-(4-(trifluoromethyl)benzyl)-1,5-dihydrobenzo[e][1,4]oxazepin-2(3H)-one]
EC50 (adult T. muris; Trichuris muris, values of Fig 5 shown for comparison, read-out: EC50 in adult Trichuris paralysis assay): 26 µM | EC50 ([4]; Mus musculus, CMT93): > 100 µM | EC50 ([5]; Mus musculus, CMT93): 60 µM

O=C1COCc2cc(-c3cccnc3)ccc2N1Cc1ccc(C(F)(F)F)cc1 [Compound 3]
EC50 (adult T. muris; [6]): 26 µM | COMBINED_SCREEN_ACTIVITY (adult T. muris): 11.4716 | PRIMARY_SCREEN_MINUS_LOG_FOLD_CHANGE_MOVEMENT (adult T. muris): 10.3243 | SECONDARY_SCREEN_MINUS_LOG_FOLD_CHANGE_MOVEMENT (adult T. muris): 12.6188 | EC50 at 72 h (WST-8 cytotoxicity assay): > 100 µM | EC50 at 72 h [2]: 60 µM

CCCSc1ccc2nc(NC(=O)OC)[nH]c2c1 [albendazole]
Cure rate for infection with T. trichiura (T. trichiura): 28% | Cure rate, Ascaris (Ascaris): up to 95%

COC(=O)Nc1nc2ccc(C(=O)c3ccccc3)cc2[nH]1 [Mebendazole]
Activity against T. muris L1 larvae (T. muris L1 larvae; maximum concentration tested 50μg/ml or 169μM): not active | Activity against L3/L4 and adult T. muris (L3/L4 and adult T. muris): active | Cure rate for infection with T. trichiura (T. trichiura): 36% | Cure rate, Ascaris (Ascaris): up to 95%
